# Data from ChEMBL document CHEMBL1156725, “8-Biarylchromen-4-one inhibitors of the DNA-dependent protein kinase (DNA-PK)” (Bioorg Med Chem Lett, 2008).
# pIC50: −log10 of the molar value.
# Molecular target: DNA-dependent protein kinase catalytic subunit (Homo sapiens, UniProt P78527)
# Test: Inhibition of DNA-dependent protein kinase
# Sequence of DNA-dependent protein kinase catalytic subunit (P78527 whole entry): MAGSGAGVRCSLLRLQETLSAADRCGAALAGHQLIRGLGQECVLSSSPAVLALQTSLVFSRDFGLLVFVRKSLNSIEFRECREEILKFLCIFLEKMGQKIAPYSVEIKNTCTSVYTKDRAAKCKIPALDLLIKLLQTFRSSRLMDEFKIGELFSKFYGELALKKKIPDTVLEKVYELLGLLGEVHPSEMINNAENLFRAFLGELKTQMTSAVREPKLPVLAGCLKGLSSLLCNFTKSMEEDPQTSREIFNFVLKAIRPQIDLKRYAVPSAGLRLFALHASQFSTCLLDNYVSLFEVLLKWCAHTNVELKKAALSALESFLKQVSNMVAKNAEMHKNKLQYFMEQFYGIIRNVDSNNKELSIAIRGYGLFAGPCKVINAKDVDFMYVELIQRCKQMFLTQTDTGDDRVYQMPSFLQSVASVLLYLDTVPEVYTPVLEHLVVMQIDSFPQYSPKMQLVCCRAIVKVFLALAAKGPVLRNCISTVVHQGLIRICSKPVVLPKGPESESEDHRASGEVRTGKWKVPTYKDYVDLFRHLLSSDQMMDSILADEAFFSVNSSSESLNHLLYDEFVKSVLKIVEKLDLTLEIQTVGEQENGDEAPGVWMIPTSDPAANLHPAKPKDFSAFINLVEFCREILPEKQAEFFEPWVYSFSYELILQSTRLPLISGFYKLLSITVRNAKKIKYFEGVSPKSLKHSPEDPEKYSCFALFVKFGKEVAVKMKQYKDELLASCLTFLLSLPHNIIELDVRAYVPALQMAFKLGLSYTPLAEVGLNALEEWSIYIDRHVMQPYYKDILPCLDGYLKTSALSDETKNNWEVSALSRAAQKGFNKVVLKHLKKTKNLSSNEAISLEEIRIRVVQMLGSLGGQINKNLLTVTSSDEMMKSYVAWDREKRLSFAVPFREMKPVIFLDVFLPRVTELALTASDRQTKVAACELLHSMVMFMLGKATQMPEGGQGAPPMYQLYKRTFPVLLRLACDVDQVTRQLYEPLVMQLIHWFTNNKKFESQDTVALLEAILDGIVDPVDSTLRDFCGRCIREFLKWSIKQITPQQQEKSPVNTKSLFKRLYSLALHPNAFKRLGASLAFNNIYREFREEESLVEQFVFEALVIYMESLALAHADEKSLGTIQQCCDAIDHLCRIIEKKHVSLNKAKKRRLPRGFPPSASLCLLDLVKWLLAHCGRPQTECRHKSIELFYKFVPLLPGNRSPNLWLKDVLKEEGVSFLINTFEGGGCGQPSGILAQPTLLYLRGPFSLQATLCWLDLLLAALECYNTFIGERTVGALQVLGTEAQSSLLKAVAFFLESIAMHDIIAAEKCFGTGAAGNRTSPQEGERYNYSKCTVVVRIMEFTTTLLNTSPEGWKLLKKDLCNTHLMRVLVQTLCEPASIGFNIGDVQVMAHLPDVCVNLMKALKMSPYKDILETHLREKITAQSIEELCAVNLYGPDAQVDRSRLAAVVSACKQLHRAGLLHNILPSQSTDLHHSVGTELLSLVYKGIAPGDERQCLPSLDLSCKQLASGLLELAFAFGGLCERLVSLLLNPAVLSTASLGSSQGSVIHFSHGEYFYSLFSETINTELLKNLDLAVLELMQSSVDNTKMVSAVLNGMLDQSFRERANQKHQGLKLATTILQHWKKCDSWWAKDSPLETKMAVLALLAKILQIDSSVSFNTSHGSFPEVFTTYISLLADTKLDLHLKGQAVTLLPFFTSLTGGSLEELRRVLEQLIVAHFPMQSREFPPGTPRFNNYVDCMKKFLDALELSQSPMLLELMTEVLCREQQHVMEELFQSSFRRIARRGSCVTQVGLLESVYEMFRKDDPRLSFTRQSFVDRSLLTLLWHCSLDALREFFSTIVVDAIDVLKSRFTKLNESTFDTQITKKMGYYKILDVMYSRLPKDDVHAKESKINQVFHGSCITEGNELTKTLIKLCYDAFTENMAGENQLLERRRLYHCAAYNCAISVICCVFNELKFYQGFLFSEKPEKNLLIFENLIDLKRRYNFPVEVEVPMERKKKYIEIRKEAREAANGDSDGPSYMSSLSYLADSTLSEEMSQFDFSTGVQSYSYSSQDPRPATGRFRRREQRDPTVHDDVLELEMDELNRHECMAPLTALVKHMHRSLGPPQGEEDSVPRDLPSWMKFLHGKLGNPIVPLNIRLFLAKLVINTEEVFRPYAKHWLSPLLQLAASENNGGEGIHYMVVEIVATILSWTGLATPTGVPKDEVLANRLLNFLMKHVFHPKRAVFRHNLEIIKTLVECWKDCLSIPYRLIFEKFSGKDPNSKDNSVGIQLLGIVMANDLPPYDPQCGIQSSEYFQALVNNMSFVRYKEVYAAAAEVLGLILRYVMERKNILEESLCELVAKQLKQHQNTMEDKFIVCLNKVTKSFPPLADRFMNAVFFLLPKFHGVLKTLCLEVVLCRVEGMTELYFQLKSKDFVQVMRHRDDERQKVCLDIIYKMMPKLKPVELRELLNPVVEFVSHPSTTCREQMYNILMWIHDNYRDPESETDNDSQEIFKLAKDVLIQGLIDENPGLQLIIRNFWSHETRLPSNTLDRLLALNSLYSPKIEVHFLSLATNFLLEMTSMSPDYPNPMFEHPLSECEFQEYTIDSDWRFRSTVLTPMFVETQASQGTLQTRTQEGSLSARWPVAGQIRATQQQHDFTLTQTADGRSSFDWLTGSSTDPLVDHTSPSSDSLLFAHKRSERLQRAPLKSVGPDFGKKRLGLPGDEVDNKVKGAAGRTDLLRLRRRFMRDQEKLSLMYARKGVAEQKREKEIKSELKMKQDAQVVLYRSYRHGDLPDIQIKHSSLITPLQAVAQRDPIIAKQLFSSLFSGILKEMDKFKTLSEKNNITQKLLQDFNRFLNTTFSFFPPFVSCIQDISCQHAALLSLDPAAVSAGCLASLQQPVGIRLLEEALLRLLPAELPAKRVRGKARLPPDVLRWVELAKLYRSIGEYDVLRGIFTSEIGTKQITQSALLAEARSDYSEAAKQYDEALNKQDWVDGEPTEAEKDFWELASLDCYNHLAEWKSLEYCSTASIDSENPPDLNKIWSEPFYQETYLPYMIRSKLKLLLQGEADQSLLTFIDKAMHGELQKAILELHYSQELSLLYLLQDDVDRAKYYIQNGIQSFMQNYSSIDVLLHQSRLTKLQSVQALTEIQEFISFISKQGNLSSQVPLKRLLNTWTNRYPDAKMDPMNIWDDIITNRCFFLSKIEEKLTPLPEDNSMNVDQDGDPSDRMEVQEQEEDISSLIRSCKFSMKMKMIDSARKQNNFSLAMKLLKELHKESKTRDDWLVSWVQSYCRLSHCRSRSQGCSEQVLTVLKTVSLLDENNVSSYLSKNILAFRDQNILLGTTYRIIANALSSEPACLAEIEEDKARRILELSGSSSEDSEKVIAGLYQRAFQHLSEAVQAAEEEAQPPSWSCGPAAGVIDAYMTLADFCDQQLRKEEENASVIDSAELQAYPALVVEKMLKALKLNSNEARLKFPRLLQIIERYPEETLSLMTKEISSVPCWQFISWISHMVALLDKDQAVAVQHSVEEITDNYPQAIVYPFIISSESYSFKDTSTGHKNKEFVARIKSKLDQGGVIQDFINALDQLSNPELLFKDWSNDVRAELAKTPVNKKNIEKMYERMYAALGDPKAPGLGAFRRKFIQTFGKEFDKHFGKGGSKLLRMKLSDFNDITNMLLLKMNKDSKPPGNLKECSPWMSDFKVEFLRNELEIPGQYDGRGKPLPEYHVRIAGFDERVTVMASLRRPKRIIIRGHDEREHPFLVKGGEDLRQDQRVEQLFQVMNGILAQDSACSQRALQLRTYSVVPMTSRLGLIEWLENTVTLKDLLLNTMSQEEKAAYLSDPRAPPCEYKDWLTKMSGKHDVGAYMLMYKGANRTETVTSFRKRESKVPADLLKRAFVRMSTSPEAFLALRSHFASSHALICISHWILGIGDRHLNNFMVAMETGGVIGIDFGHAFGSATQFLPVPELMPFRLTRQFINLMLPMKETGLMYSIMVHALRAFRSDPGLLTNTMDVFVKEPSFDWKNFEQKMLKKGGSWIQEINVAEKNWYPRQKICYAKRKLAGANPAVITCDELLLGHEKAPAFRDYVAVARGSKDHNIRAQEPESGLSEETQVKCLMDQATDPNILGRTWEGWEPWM
row,pIC50,SMILES
1,5.91,Cn1cncc1-c1cccc(-c2cccc3c(=O)cc(N4CCOCC4)oc23)c1
2,6.74,O=c1cc(N2CCOCC2)oc2c(-c3cccc(-c4ccccc4)c3)cccc12
3,7.92,O=c1cc(N2CCOCC2)oc2c(-c3cccc4c3sc3ccccc34)cccc12
4,5.80,O=c1cc(N2CCOCC2)oc2c(-c3cccc(-c4cncnc4)c3)cccc12
5,5.96,O=Cc1ccc(-c2cccc(-c3cccc4c(=O)cc(N5CCOCC5)oc34)c2)cc1
6,7.05,O=c1cc(N2CCOCC2)oc2c(-c3cc(-c4ccccc4)cs3)cccc12
7,5.83,N#Cc1ccc(-c2cccc(-c3cccc4c(=O)cc(N5CCOCC5)oc34)c2)cc1
8,6.06,O=c1cc(N2CCOCC2)oc2c(-c3cccc(-c4ccccn4)c3)cccc12
9,5.52,Cn1ccnc1-c1cccc(-c2cccc3c(=O)cc(N4CCOCC4)oc23)c1
10,5.72,NCc1ccc(-c2cccc(-c3cccc4c(=O)cc(N5CCOCC5)oc34)c2)cc1
11,5.97,Cc1ccc(-c2cccc(-c3cccc4c(=O)cc(N5CCOCC5)oc34)c2)s1
12,6.00,O=c1cc(N2CCOCC2)oc2c(-c3cccc(-c4ccc(CO)cc4)c3)cccc12
13,6.59,COC(=O)c1cc(N)cc(-c2cccc(-c3cccc4c(=O)cc(N5CCOCC5)oc34)c2)c1
14,5.80,O=c1cc(N2CCOCC2)oc2c(-c3ccccc3)cccc12 [LY-294002]
15,7.74,O=c1cc(N2CCOCC2)oc2c(-c3cccc(-c4cccs4)c3)cccc12
16,6.08,COc1ccc(-c2cccc(-c3cccc4c(=O)cc(N5CCOCC5)oc34)c2)cc1
17,6.43,O=c1cc(N2CCOCC2)oc2c(-c3ncc(-c4ccccc4)s3)cccc12
18,6.29,O=c1cc(N2CCOCC2)oc2c(-c3cccc(-c4ccncc4)c3)cccc12
19,5.52,O=c1cc(N2CCOCC2)oc2c(-c3cccc(-c4ncccn4)c3)cccc12
20,7.70,O=c1cc(N2CCOCC2)oc2c(-c3cccc(-c4ccsc4)c3)cccc12
21,6.31,O=c1cc(N2CCOCC2)oc2c(-c3cccc(-c4nccs4)c3)cccc12
22,6.57,O=c1cc(N2CCOCC2)oc2c(-c3cccc(-c4ccoc4)c3)cccc12
23,6.40,O=c1cc(N2CCOCC2)oc2c(-c3ccc(-c4ccccc4)s3)cccc12
24,6.42,O=c1cc(N2CCOCC2)oc2c(-c3cccc(-c4ccco4)c3)cccc12
25,6.44,Cc1ccsc1-c1cccc(-c2cccc3c(=O)cc(N4CCOCC4)oc23)c1
26,6.19,Cc1cscc1-c1cccc(-c2cccc3c(=O)cc(N4CCOCC4)oc23)c1
27,6.29,Nc1cc(C(=O)O)cc(-c2cccc(-c3cccc4c(=O)cc(N5CCOCC5)oc34)c2)c1
28,6.85,O=c1cc(N2CCOCC2)oc2c(-c3cccc(-c4ccc(O)cc4)c3)cccc12
29,5.74,O=c1cc(N2CCOCC2)oc2c(-c3cccc(-c4cc[nH]c4)c3)cccc12
30,5.95,Cc1cc(-c2cccc(-c3cccc4c(=O)cc(N5CCOCC5)oc34)c2)cs1
